# Results: patent US8486991B2, “Enantiomerically pure phosphoindoles as HIV inhibitors” (Idenix Pharmaceuticals, Inc., priority 2006, dated 2013)
# Values joined by “and” are separate entries in the source; they are usually repeats but may differ in a detail not shown here. Identical values can stand only once. Like-named read-outs stand apart in the source and are kept apart here.
# Experiments:
# [1] = In vitro half-life in liver microsomes, human; assay type: in vitro ADME; settings: up to one hour, longer half-lives are extrapolated, n=1
# Procedure: (§1) In vitro metabolism was assessed using liver microsomes for all species. Compounds were incubated at 1 μM with liver microsomes for up to one hour. Reported half-lives greater than the total incubation time are extrapolated values. Extracts were assayed for disappearance of parent compound by LC-MS/MS detection.
# (§2) Data represents one independent experiment conducted.
# [2] = Compound depletion in hepatocytes, human; assay type: in vitro ADME; settings: up to 2 hours; for t½, Compound Depletion in Hepatocytes, Human: 1 μM; for half-life at 1 μM: human, read-out: t½, Compound Depletion in Hepatocytes, Human
# Procedure: (§3) Fresh hepatocytes were plated onto collagen-coated plates and exposed to test compounds at 1 μM for up to 2 hours. Tissue culture medium was assayed for compound depletion by LC/MS detection. Values in Table 23 represent independent experiments from 5 to 7 donors.
# cynomolgus monkeys = assay: 14-day oral toxicity, monkeys; assay type: in vivo, cynomolgus monkey; settings: for effects on food consumption or body weight: once daily oral gavage 14 days, up to 500 (I) or 450 (III) mg/kg/day
# Procedure: (§4) Sprague-Dawley rats and cynomolgus monkeys were dosed once daily for 14 days via oral gavage with compound I or compound III or dose vehicle (68% Capmul PG-8, 20% PEG 400, 2% Tween 20, and 10% Labrasol) according to GLP. There were 10 male and 10 female rats, and there were 3 male and 3 female monkeys. Rats and monkeys were dosed with 0, 50, 150 or 500 mg/kg/day compound I or with 0, 50, 150, 450 mg/kg/day compound III.
# (§5) Toxicity was assessed using clinical observations, body weights, food consumption, and clinical pathology (hematology, coagulation, and serum chemistry).
# (§6) A comprehensive necropsy and gross pathological examination was performed on all animals and selected organs and tissues were collected for histological evaluation.
# (§7) Determinations of hematocrit, hemoglobin concentration, erythrocyte count, total leukocyte count, and platelet count were conducted on all samples. Leukocyte differential and morphologic assessments were performed.
# (§8) Clinical biochemistry determinations included activities of alanine aminotransferase (ALT), aspartate aminotransferase (AST), gamma-glutamyltranspeptidase (GGT), and alkaline phosphatase (ALP) and concentrations of blood urea nitrogen (BUN), creatinine, total protein, albumin, globulin, glucose, cholesterol, triglycerides, total bilirubin, and electrolyte levels (Na, K, P, Cl, Ca).
# Urine samples (monkeys only) were evaluated macroscopically and microscopically and tested for pH, bilirubin, glucose, protein, ketones, blood, urobilinogen, nitrites, leukocytes, and specific gravity.
# CYP2C9 [3] = molecular target: T1, CYP2C9 (Homo sapiens, UniProt P11712); assay: Human liver microsomal CYP450 inhibition, CYP2C9; settings: for Type of inhibition, CYP2C9 (Diclofenac): human liver microsomes
# Procedure: (§9) In addition, the type of inhibition was also evaluated.
# (§10) Enzyme kinetic studies of cytochrome P450 isozyme inhibition were conducted using human liver microsomes.
# Probe substrate for 2C8 was paclitaxel, probe substrate for 2C9 was diclofenac and for 3A4 probe substrates were midazolam and testosterone.
# [4] = In vitro half-life in liver microsomes, monkey; assay type: in vitro ADME; settings: up to one hour, n=1
# Procedure: as §1, §2
# [5] = system: HIV-1 BH10 K103N mutant virus; assay: microbe, parasite or virus in culture; assay type: cell-based; settings: for EC50: unit inferred; for Fold Change, K103N: Table 7
# CYP2C9 [6] = molecular target: T1, CYP2C9; assay: Recombinant CYP450 inhibition, Luciferin-H, CYP2C9; assay type: in vitro ADME; set-up: from tissue; host or cells: pooled human liver microsomes; settings: highest concentration tested 10 μM
# Procedure: CYP2C9 inhibition was performed by incubating a luminogenic CYP450 substrate Luciferin-H with CYP2C9 and an NADPH regeneration system. Luminescence measured using a Fusion plate reader.
# CYP2B6 = molecular target: T2, CYP2B6 (Homo sapiens, UniProt P20813); assay: Human liver microsomal CYP450 inhibition, CYP2B6; settings: for IC50, CYP2B6: human liver microsomes
# T2 sequence (P20813 1-491): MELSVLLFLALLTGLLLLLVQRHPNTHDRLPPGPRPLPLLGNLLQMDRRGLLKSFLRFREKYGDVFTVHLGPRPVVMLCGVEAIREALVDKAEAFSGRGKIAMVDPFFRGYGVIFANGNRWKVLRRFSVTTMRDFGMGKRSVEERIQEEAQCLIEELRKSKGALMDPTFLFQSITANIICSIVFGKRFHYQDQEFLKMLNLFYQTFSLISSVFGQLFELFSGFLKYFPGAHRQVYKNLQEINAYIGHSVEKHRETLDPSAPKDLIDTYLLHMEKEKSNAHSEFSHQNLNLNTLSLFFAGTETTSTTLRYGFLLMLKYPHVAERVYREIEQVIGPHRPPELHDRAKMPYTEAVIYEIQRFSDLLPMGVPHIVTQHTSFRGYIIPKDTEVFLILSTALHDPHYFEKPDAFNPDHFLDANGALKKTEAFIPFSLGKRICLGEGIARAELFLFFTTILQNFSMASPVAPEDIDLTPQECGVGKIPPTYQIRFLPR
# Procedure: as §9, §10
# Sprague-Dawley rats = assay: 14-day oral toxicity, rats; assay type: in vivo, rat; settings: for thyroid microscopic findings / effects on food consumption or body weight: rats; for thyroid microscopic findings: all dose groups except low dose compound III-treated females; for effects on food consumption or body weight: once daily oral gavage 14 days, up to 500 (I) or 450 (III) mg/kg/day
# Procedure: as §4, §5, §6, §7, §8
# CYP3A4 [7] = molecular target: T3, CYP3A4 (Homo sapiens, UniProt P08684); assay: Recombinant CYP450 inhibition, fluorometric, CYP3A4; assay type: in vitro ADME; set-up: from tissue; host or cells: pooled human liver microsomes
# Procedure: Compounds were assayed using recombinant human microsomal proteins with fluorometric substrates. Signal was measured with a Fusion plate reader utilizing the appropriate excitation and emission wavelength set to detect the specific metabolite: […]
# [8] = Plasma protein binding by equilibrium dialysis, human; assay type: in vitro ADME
# Procedure: The in vitro plasma protein binding of compound I and compound III in rat, dog, monkey and human plasma was determined by equilibrium dialysis. Protein binding was assessed by equilibrium dialysis using rat, dog, monkey and human plasma. Samples were assayed by HPLC with LC-MS/MS detection. Plasma protein binding was high (>99%) for all species and for both compounds.
# [9] = Compound depletion in hepatocytes, monkey; assay type: in vitro ADME; settings: up to 2 hours, read-out: t½, Compound Depletion in Hepatocytes, Monkey
# Procedure: as §3
# CYP3A4 [10] = molecular target: T3, CYP3A4; assay: Human liver microsomal CYP450 inhibition, CYP3A4; settings: for Ki / Type of inhibition, CYP3A4 (Midazolam) / Type of inhibition, CYP3A4 (Testosterone) / kinact: human liver microsomes; for IC50: pooled human liver microsomes, probe midazolam and testosterone; for type of inhibition of CYP3A4: text b965, substrate not stated
# MT-4 cells = assay: Cellular cytotoxicity, 4 days, MTS, MT-4; settings: for CC50: read-out: Average CC50 Values ± Standard Deviation, MT-4, Table 21, 4 days, MTS
# Procedure: Following drug exposure for 4 days, cell viability was measured by MTS staining and CC50 values were determined. Drug concentrations ranged from 0.005 μM to 100 μM.
# The preceding data, allows us to calculate selectivity index (SI) values, based on the ratio of CC50 to EC50 in MT-4 cells (the standard assay used in this work).
# [11] = human, pooled human liver microsomes, probe diclofenac
# [12] = CYP3A4 (Testosterone), time dependent inhibition
# [13] = fresh hepatocytes plated on collagen-coated plates
# T1 sequence (P11712 whole entry): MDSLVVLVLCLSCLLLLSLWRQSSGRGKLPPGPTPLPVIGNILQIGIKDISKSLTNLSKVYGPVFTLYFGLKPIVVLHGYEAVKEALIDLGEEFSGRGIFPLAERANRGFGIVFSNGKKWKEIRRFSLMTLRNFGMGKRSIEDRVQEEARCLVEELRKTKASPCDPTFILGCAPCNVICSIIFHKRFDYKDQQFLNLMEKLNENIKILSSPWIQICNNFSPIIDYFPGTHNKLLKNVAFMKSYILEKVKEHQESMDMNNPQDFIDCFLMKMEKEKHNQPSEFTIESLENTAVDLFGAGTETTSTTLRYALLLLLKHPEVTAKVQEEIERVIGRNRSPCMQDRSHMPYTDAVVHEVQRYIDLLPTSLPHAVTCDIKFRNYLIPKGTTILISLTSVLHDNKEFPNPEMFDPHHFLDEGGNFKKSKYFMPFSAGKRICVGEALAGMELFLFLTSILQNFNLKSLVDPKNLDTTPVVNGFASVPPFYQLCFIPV
# T3 sequence (P08684 whole entry, the tested form may be a part): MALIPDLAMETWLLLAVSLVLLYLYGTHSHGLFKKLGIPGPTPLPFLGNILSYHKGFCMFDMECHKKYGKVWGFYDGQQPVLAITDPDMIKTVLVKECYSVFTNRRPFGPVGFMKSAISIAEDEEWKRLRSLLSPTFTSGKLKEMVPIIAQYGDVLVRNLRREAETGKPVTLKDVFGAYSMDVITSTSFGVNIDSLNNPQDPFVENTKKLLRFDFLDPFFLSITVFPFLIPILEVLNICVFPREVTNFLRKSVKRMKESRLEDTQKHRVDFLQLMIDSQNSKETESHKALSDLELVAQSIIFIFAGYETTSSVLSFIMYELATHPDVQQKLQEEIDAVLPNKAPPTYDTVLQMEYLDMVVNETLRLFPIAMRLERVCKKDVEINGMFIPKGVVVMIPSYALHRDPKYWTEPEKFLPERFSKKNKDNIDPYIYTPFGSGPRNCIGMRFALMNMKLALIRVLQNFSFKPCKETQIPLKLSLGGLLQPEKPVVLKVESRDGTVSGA
SMILES,"t½, Compound Depletion in Hepatocytes, Human [2]",effects on food consumption or body weight (cynomolgus monkeys),Ki (CYP2C9 [3]),"Type of inhibition, CYP2C9 (Diclofenac) (CYP2C9 [3])",IC50 (CYP2C9 [3]; [11]),"Fold Change, K103N [5]",IC50 (CYP2C9 [6]),IC50 (CYP2B6),"IC50, CYP2B6 (CYP2B6)",thyroid microscopic findings (Sprague-Dawley rats),effects on food consumption or body weight (Sprague-Dawley rats),"Percentage Plasma Protein Binding, Humans [8]",Ki (CYP3A4 [10]; [12]),"Type of inhibition, CYP3A4 (Midazolam) (CYP3A4 [10])","Type of inhibition, CYP3A4 (Testosterone) (CYP3A4 [10])","kinact (CYP3A4 [10]; human, probe midazolam)","kinact (CYP3A4 [10]; human, probe testosterone)",IC50 (CYP3A4 [10]; human),type of inhibition of CYP3A4 (CYP3A4 [10]),"Selectivity Index (SI), CC50/EC50 in MT-4 cells (MT-4 cells)",also measured
"CO[P@](=O)(c1cc(C)cc(/C=C/C#N)c1)c1c(C(N)=O)[nH]c2ccc(Cl)c(F)c12 [Compound I, (2-Carbamoyl-5-chloro-4-fluoro-1H-indol-3-yl)-[3-((E)-2-cyano-vinyl)-5-methyl-phenyl]-(R)-phosphinic acid methyl ester]",limited in vitro metabolism,No effects,1.4 µM,competitive inhibition,< 10 µM,0.9 ± 0.4 fold,8.4 ± 0.67 µM,> 20 µM,not observed,minimal to mild thyroid follicular cell hypertrophy/hyperplasia,No effects,99.8%,0.14 µM,mechanism-based inhibition,mechanism-based inhibition,0.0012 s⁻¹,0.00055 s⁻¹,< 10 µM,mechanism based inhibition,"> 18,000 and > 22,000","half-life at 1 μM ([1]; microsomes): 2.01 h; half-life at 1 μM ([2]; hepatocytes): 3.58 ± 0.8 h; Type of inhibition, CYP2C9 (Diclofenac) (CYP2C9 [3]; listed as compound I): competitive inhibition; Ki (CYP2C9 [3]; [11]): 1.45 µM; half-life at 1 μM ([4]; microsomes): 0.257 h; EC50 ([5]; Human immunodeficiency virus 1, MT4, read-out: EC50, K103N, Example 16 comparative tables): 0.6 ± 0.2 nM; EC50 ([5]; read-out: EC50, K103N, Example 16 comparative tables): 0.9 nM; IC50 (CYP3A4 [7]): 1.46 ± 0.39 µM; half-life at 1 μM ([9]; hepatocytes): 1.05 ± 0.667 h; Ki (CYP3A4 [10]; human, 3A4, Example 18 table): 0.36 µM; Ki (CYP3A4 [10]; human, probe midazolam, CYP3A4 (Midazolam), time dependent inhibition): 0.18 µM; CC50 (MT-4 cells): 18.6 ± 3.1 µM"
"CO[P@](=O)(c1cc(C)cc(/C=C/C#N)c1)c1c(C(N)=O)[nH]c2ccc(Cl)cc12 [Compound III, (2-Carbamoyl-5-chloro-1H-indol-3-yl)-[3-((E)-2-cyano-vinyl)-5-methyl-phenyl]-(R)-phosphinic acid methyl ester]",limited in vitro metabolism,No effects,0.93 µM,competitive inhibition,< 10 µM,1.2 ± 0.4 fold,6.85 ± 0.48 µM,> 20 µM,not observed,minimal to mild thyroid follicular cell hypertrophy/hyperplasia,No effects,99.9%,0.21 µM,mechanism-based inhibition,mechanism-based inhibition,0.001 s⁻¹,0.000833 s⁻¹,< 10 µM,mechanism based inhibition,"> 22,000 and > 18,000","half-life at 1 μM ([1]; liver microsomes): 2.57 h; half-life at 1 μM [2, 13]: 2.08 ± 0.917 h; organ weights (cynomolgus monkeys; mid and high doses, livers microscopically unremarkable): increased liver weights; Type of inhibition, CYP2C9 (Diclofenac) (CYP2C9 [3]; listed as compound III): competitive inhibition; half-life at 1 μM ([4]; liver microsomes): 0.21 h; organ weights (Sprague-Dawley rats; rats (females only), mid and high doses, livers microscopically unremarkable): increased liver weights; IC50 (CYP3A4 [7]; recombinant, highest concentration tested 10 μM, read-out: IC50, CYP3A4): 2.86 ± 0.78 µM; half-life at 1 μM [9, 13]: 0.867 ± 0.4 h; Ki (CYP3A4 [10]; CYP3A4 (Midazolam), time dependent inhibition): 0.06 µM; CC50 (MT-4 cells): 27.3 ± 12.9 µM"
